The values that follow come from US8574556B2, “Antibacterial pharmaceutical composition comprising Aceriphyllum rossii extract and active compounds isolated therefrom” (Korea Research Institute of Bioscience and Biotechnology, priority 2008, dated 2013).

Molecules are shown by their SMILES. ≈ marks a conversion by molar mass, not a printed value. Read-outs that look alike come from different tables or passages of the source. A value given as a limit tells only on which side of the number the result lay.

Common to all, as to assay type: cell-based
For experiment [1], the system named is Staphylococcus aureus 503. Kind of experiment: Broth microdilution MIC. The procedure: (§1) Test strains were cultured in a Mueller Hinton broth, and the antibacterial activities were determined by a broth microdilution assay. The test strains were grown to the mid-logarithmic phase, and diluted to a concentration of 10^5/ml with the same broth. 0.2 ml of the cells was added to each well of 96-well plates. The samples prepared in Examples 1 and 2 and Comparative Example 1 were serially diluted 2-fold, and added to the plates. The cells were incubated at 30° C. for 18 hrs, and cell growth was measured at 650 nm.
(§2) The antibacterial activity of Aceriphyllum rossii extract was determined with respect to Staphylococcus aureus, and the antibacterial activities of aceriphyllic acid A and 3-oxo-12-oleanen-27-oic acid were determined with respect to 15 different types of strains. Triclosan, oxacillin, and norfloxacin, which are commercially available antibiotics, were used for comparison.
In general terms: Dilution methods test growth across graded concentrations, often in twofold steps.

Experiment [2] has as its system Micrococcus luteus KCTC1056. Kind of experiment: Broth microdilution MIC. The procedure:
as §1, §2

The subject of experiment [3] is Streptococcus mutans KCTC3065. Kind of experiment: Broth microdilution MIC. The procedure: as §1, §2
The test system of experiment [4] is Enterococcus faecium KCTC3122. Kind of experiment: Broth microdilution MIC. The procedure: as §1, §2
For experiment [5], the system named is Staphylococcus aureus CCARM3167(MRSA). Kind of experiment: Broth microdilution MIC. As to the method: as §1, §2
Experiment [6] relates to Streptococcus mutans KCTC5248. The experiment can be described thus: Broth microdilution MIC. The procedure: as §1, §2
The test system of experiment [7] is Staphylococcus aureus CCARM3519(QRSA). Kind of experiment: Broth microdilution MIC. The procedure:
as §1, §2

Experiment [8] has as its system Staphylococcus aureus KCTC1916. The experiment can be described thus: Broth microdilution MIC. As to the method:
as §1, §2

Experiment [9] relates to Staphylococcus aureus CCARM3506(MRSA). Kind of experiment: Broth microdilution MIC. The procedure:
as §1, §2

The test system of experiment [10] is Streptococcus mutans KCTC3289. Kind of experiment: Broth microdilution MIC. As to the method:
as §1, §2

Experiment [11] concerns Acinetobacter calcoaceticus KCTC2357. Kind of experiment: Broth microdilution MIC. As to the method:
as §1, §2

The subject of experiment [12] is Staphylococcus aureus CCARM3505(QRSA). Kind of experiment: Broth microdilution MIC. As to the method:
as §1, §2

The subject of experiment [13] is Streptococcus pneumoniae KCTC3932. Kind of experiment: Broth microdilution MIC. As to the method:
as §1, §2

For experiment [14], the system named is Staphylococcus aureus RN4220. The experiment can be described thus: Broth microdilution MIC. The procedure:
as §1, §2

The subject of experiment [15] is Bacillus subtilis KCTC1021. Kind of experiment: Broth microdilution MIC. As to the method: as §1, §2
Experiment [16] has as its system Propionibacterium acnes ATCC6919. The experiment can be described thus: Broth microdilution MIC, anaerobic RCMI liquid media. As to the method: Propionibacterium acnes was cultured in RCMI liquid media under anaerobic conditions, and the antibacterial activities were determined by a broth microdilution assay. The test strain was pre-cultured in liquid media at 37° C. for 1 to 2 days. 15 μl of test material dissolved in DMSO was added to 3 ml of broth to a concentration of 32 ppm. The sample was serially diluted 2-fold to prepare seven samples with different concentrations. The samples were added to the pre-cultured broth to a microbial concentration of 10^5-6 cfu/ml, and cultured for 1-3 days, followed by measurement of cell growth.
as §2

Experiment [17] relates to Staphylococcus aureus, methicillin-resistant S. aureus, and quinolone-resistant S. aureus. Kind of experiment: Broth microdilution MIC, summary over S. aureus strains. The note with it: range over Staphylococcus aureus, MRSA and QRSA strains (text summary of Table 2). As to the method:
as §1, §2

Experiment [18] has as its system cariogenic bacteria (Streptococcus mutans). The experiment can be described thus: Broth microdilution MIC, for cariogenic bacteria. The note with it: Streptococcus mutans (text summary of Table 2). As to the method: as §1, §2
In experiment [19] the test system is Acinetobacter calcoaceticus, Micrococcus luteus, and Bacillus subtilis. Kind of experiment: Broth microdilution MIC, text summary. The note with it: range over Acinetobacter calcoaceticus, Micrococcus luteus and Bacillus subtilis (text summary of Table 2). As to the method: as §1, §2
Setting [20] is: Staphylococcus aureus CCARM3167(MRSA), read-out: MIC.
The mark [21] stands for this setting: Staphylococcus aureus CCARM3519(QRSA), read-out: MIC.
[22] abbreviates: Staphylococcus aureus CCARM3506(MRSA), read-out: MIC.
[23] abbreviates: Staphylococcus aureus CCARM3505(QRSA), read-out: MIC.
The mark [24] stands for this setting: Cutibacterium acnes, ATCC6919, Propionibacterium acnes (text summary of Table 2), read-out: MIC.
The mark [25] stands for this setting: Propionibacterium acnes ATCC6919.

As to `CCn1cc(C(=O)O)c(=O)c2cc(F)c(N3CCNCC3)cc21` [Norfloxacin], the MIC (as a rule, the smallest concentration in the dilution series that meets the test's criterion for growth inhibition) in experiment [1] (read-out: MIC) worked out at 1 µg/mL (≈ 3.13 µM); in experiment [2] (read-out: MIC), 2 µg/mL (≈ 6.26 µM); in experiment [3] (read-out: MIC) it was 8 µg/mL (≈ 25.1 µM); in experiment [4] (read-out: MIC), 8 µg/mL (≈ 25.1 µM); in [5] (setting [20]), 8 µg/mL (≈ 25.1 µM); in [6] (read-out: MIC), 8 µg/mL (≈ 25.1 µM). For the same compound, the MIC in experiment [7] (setting [21]) was 125 µg/mL (≈ 391 µM); in experiment [8] (read-out: MIC), 0.25 µg/mL (≈ 0.783 µM); in [9] (setting [22]) it was 1 µg/mL (≈ 3.13 µM); in experiment [10] (read-out: MIC) it was 8 µg/mL (≈ 25.1 µM); in experiment [11] (read-out: MIC), 0.25 µg/mL (≈ 0.783 µM); in [12] (setting [23]), 250 µg/mL (≈ 783 µM). The MIC in experiment [13] (read-out: MIC) stood at 2 µg/mL (≈ 6.26 µM); in experiment [14], 1 µg/mL (≈ 3.13 µM); in [15] (read-out: MIC), 0.25 µg/mL (≈ 0.783 µM).
For `Oc1cc(Cl)ccc1Oc1ccc(Cl)cc1Cl` [Triclosan], the MIC amounted to 0.006 µg/mL (≈ 0.0207 µM) in experiment [1]; 1 µg/mL (≈ 3.45 µM) in experiment [2]; 1 µg/mL (≈ 3.45 µM) in experiment [3]; 4 µg/mL (≈ 13.8 µM) in [4]; 0.006 µg/mL (≈ 0.0207 µM) in [5] (Staphylococcus aureus); 1 µg/mL (≈ 3.45 µM) in experiment [6]. Besides, the MIC in experiment [7] (Staphylococcus aureus, CCARM3519) is 0.006 µg/mL (≈ 0.0207 µM); in experiment [8], 0.006 µg/mL (≈ 0.0207 µM); in experiment [9] (Staphylococcus aureus), 0.006 µg/mL (≈ 0.0207 µM); in experiment [10], 1 µg/mL (≈ 3.45 µM); in [11] it was 0.003 µg/mL (≈ 0.0104 µM); in experiment [12] (Staphylococcus aureus, CCARM3505), 0.006 µg/mL (≈ 0.0207 µM). The MIC in experiment [13] was determined as 32 µg/mL (≈ 111 µM); in [14] it was 0.006 µg/mL (≈ 0.0207 µM); in [15] it was 0.003 µg/mL (≈ 0.0104 µM).
Regarding `CC1(C)CC[C@]2(C)CC[C@@]3(C(=O)O)C(=CCC4[C@@]5(C)CC[C@@H](O)[C@@](C)(CO)C5CC[C@]43C)C2C1` (stereo partly shown) [Aceriphyllic acid A, Aceriphyllic Acid A], the MIC in experiment [16] (setting [24]) was 2 µg/mL (≈ 4.23 µM); in experiment [16] (setting [25]), 2 µg/mL (≈ 4.23 µM); in experiment [17] it was 2 to 4 µg/mL (≈ 4.23 to 8.46 µM); in [18], 2 to 4 µg/mL (≈ 4.23 to 8.46 µM); in experiment [1] (read-out: MIC) it was 2 µg/mL (≈ 4.23 µM); in experiment [2] (read-out: MIC), 2 µg/mL (≈ 4.23 µM). Besides, the MIC was determined as 2 µg/mL (≈ 4.23 µM) in experiment [3] (read-out: MIC); 8 µg/mL (≈ 16.9 µM) in experiment [4] (read-out: MIC); 4 µg/mL (≈ 8.46 µM) in experiment [5] (setting [20]); 2 µg/mL (≈ 4.23 µM) in experiment [6] (read-out: MIC); 4 µg/mL (≈ 8.46 µM) in [7] (setting [21]); 4 µg/mL (≈ 8.46 µM) in experiment [8] (read-out: MIC). Besides, the MIC in experiment [9] (setting [22]) was 4 µg/mL (≈ 8.46 µM); in experiment [10] (read-out: MIC) it was 4 µg/mL (≈ 8.46 µM); in [11] (read-out: MIC) it was 2 µg/mL (≈ 4.23 µM); in experiment [12] (setting [23]), 4 µg/mL (≈ 8.46 µM); in experiment [13] (read-out: MIC), 32 µg/mL (≈ 67.7 µM); in experiment [14], 4 µg/mL (≈ 8.46 µM). The MIC is 1 µg/mL (≈ 2.12 µM) in experiment [15] (read-out: MIC) and 1 to 2 µg/mL (≈ 2.12 to 4.23 µM) in [19].
Consider `CC1(C)CC[C@]2(C)CC[C@@]3(C(=O)O)C(=CCC4[C@@]5(C)CCC(=O)C(C)(C)C5CC[C@]43C)C2C1` (stereo partly shown) [3-Oxo-12-oleanen-27-oic acid], for which the MIC is 2 µg/mL (≈ 4.4 µM) in experiment [16] (setting [24]); 2 µg/mL (≈ 4.4 µM) in [16] (setting [25]); 2 to 8 µg/mL (≈ 4.4 to 17.6 µM) in experiment [17]; 4 µg/mL (≈ 8.8 µM) in experiment [18]; 2 µg/mL (≈ 4.4 µM) in experiment [1] (read-out: MIC); 2 µg/mL (≈ 4.4 µM) in [2] (read-out: MIC). In addition, the MIC is 4 µg/mL (≈ 8.8 µM) in [3] (read-out: MIC); greater than 64 µg/mL in experiment [4] (read-out: MIC); 4 µg/mL (≈ 8.8 µM) in [5] (setting [20]); 4 µg/mL (≈ 8.8 µM) in experiment [6] (read-out: MIC); 8 µg/mL (≈ 17.6 µM) in experiment [7] (setting [21]); 2 µg/mL (≈ 4.4 µM) in [8] (read-out: MIC). For the same compound, the MIC is 8 µg/mL (≈ 17.6 µM) in [9] (setting [22]); 4 µg/mL (≈ 8.8 µM) in [10] (read-out: MIC); 2 µg/mL (≈ 4.4 µM) in experiment [11] (read-out: MIC); 8 µg/mL (≈ 17.6 µM) in experiment [12] (setting [23]); 16 µg/mL (≈ 35.2 µM) in [13] (read-out: MIC); 4 µg/mL (≈ 8.8 µM) in [14]. The results for the MIC in [15] (read-out: MIC) and in experiment [19] were 2 µg/mL (≈ 4.4 µM) and 1 to 2 µg/mL (≈ 2.2 to 4.4 µM), respectively.
Consider `Cc1onc(-c2ccccc2)c1C(=O)N[C@@H]1C(=O)N2[C@@H]1SC(C)(C)[C@@H]2C(=O)O` [Oxacillin], for which the MIC in experiment [1] (read-out: MIC) was 0.25 µg/mL (≈ 0.623 µM); in [2] (read-out: MIC), 8 µg/mL (≈ 19.9 µM); in experiment [3] (read-out: MIC), 0.06 µg/mL (≈ 0.149 µM); in [4] (read-out: MIC), 2 µg/mL (≈ 4.98 µM); in experiment [5] (setting [20]) it was 500 µg/mL (≈ 1250 µM); in experiment [6] (read-out: MIC) it was 0.06 µg/mL (≈ 0.149 µM). The MIC in [7] (setting [21]) was 0.5 µg/mL (≈ 1.25 µM); in [8] (read-out: MIC) it was 0.25 µg/mL (≈ 0.623 µM); in experiment [9] (setting [22]), 500 µg/mL (≈ 1250 µM); in experiment [10] (read-out: MIC) it was 0.06 µg/mL (≈ 0.149 µM); in experiment [11] (read-out: MIC), 0.125 µg/mL (≈ 0.311 µM); in experiment [12] (setting [23]), 0.5 µg/mL (≈ 1.25 µM). For the same compound, the MIC in [13] (read-out: MIC) is 2 µg/mL (≈ 4.98 µM); in [14], 0.25 µg/mL (≈ 0.623 µM); in experiment [15] (read-out: MIC) it was 0.25 µg/mL (≈ 0.623 µM).
